Laboratory results published in patent US20080058373A1, “Compositions and Methods for Treating or Preventing Glaucoma or Progression Thereof” (priority 2006, published 2008).
Where “and” joins values, the source holds several entries; their conditions need not be identical. Equal entries are not always repeated.

Experiments:
Type in all cases: in vivo
[1] = test system: rabbit eye (anterior chamber paracentesis); experiment: Pupillary diameter measurement, rabbit paracentesis model; settings: for Pupillary diameter T1: −180 min: 50 μl drops, −180 min (basal); for Pupillary diameter T1: −180 min / Pupillary diameter T2: −5 min / Pupillary diameter T3: +115 min: single eyes; for Pupillary diameter T2: −5 min: 5 min before the first paracentesis; for Pupillary diameter T3: +115 min: 5 min before the second paracentesis; for Pupillary diameter Mean Δ(T3 − T1): group mean, n=8 eyes
Protocol: (§1) Each rabbit was placed in a restraint device and tagged with the alphanumeric code. The formulations were instilled (50 μl) into the conjunctival sac of both eyes 180, 120, 90 and 30 min before the first paracentesis; then 15, 30, 90 min after the first paracentesis. To perform the first paracentesis the animals were anaesthetized by intravenous injection of 5 mg/kg Zoletil® (Virbac; 2.5 mg/kg tiletamine HCl and 2.5 mg/kg zolazepam HCl) and one drop of local anesthetic (Novesina®, Novartis) was administered to the eye. Anterior chamber paracentesis was performed with a 26 G needle attached to a tuberculin syringe; the needle was introduced into the anterior chamber through the cornea, taking care not to damage the tissues. Two hours after the first paracentesis, the animals were sacrificed with 0.4 ml Tanax® (Intervet International B.V.) and the second paracentesis was performed. About 100 μl of aqueous humor were removed at the second paracentesis. Aqueous humor was immediately split in four aliquots and stored at −80° C. until analysis. Then both eyes were enucleated and the iris-ciliary body was carefully excised, placed in polypropylene tubes, and stored at −80° C. until analysis.
The pupillary diameter of both eyes was measured with a Castroviejo caliper 180 min and 5 min before the first paracentesis and 5 min before the second paracentesis.

[2] = test system: rabbit eye (anterior chamber paracentesis); experiment: Clinical evaluation by slit lamp (clinical score), rabbit paracentesis model; parameters: key to Clinical Score −180 min / Clinical Score −5 min / Clinical Score +115 min: 0=normal; 1=discrete dilatation of iris and conjunctival vessels; 2=moderate dilatation of iris and conjunctival vessels; 3=intense iridal hyperemia with flare in the anterior chamber; 4=intense iridal hyperemia with flare in the anterior chamber and presence of fibrinous exudates; settings: for Clinical Score −5 min: 5 min before the first paracentesis; for Clinical Score −5 min / Clinical Score +115 min / Clinical Score −180 min: single eyes; for Clinical Score +115 min: 5 min before the second paracentesis
Prostaglandin E2 (PGE2) = Prostaglandin E2 (PGE2) measurement in aqueous humor, rabbit paracentesis model; settings: second paracentesis, group mean
Protocol: as §1
For the quantitative determination of PGE2 in the aqueous humor we used the PGE2 Immunoassay kit (R&D Systems; Cat.No. KGE004; Lot.No. 240010). Eleven microliters or 16 μl of aqueous humor were diluted to 110 μl or 160 μl with the calibrator diluent solution provided with the kit. One hundred microliters of samples and of standards were load into a 96-well plate and recorded in a plate layout. Samples were treated following the assay procedure described in the kit. A microplate reader (GDV, Italy; model DV 990 B/V6) set at 450 nm (wavelength correction at 540 nm) was used for making the calibration and analyzing the samples.

protein in aqueous humor = experiment: Protein measurement in aqueous humor, rabbit paracentesis model; settings: for Protein levels in aqueous humor (raw data): samples collected at the second paracentesis, single eyes; for Protein levels in aqueous humor, Mean: second paracentesis, group mean
Protocol: as §1
For protein concentration determination in the aqueous humor we used the Protein Quantification Kit (Fluka; Cat.No. 77371; Lot.No. 1303129). Five microliters of aqueous humor were diluted to 100 μl with water. Twenty microliters of samples and of standards were load into a 96-well plate and recorded in a plate layout. Samples were treated following the assay procedure described in the kit. A microplate reader (GDV, Italy; model DV 990 B/V6) set at 670 nm was used for making the calibration and analyzing the samples.

Leukocytes (PMN) = Leukocytes (PMN) measurement in aqueous humor, rabbit paracentesis model; settings: for PMN numbers in aqueous humor, Mean: second paracentesis, group mean
Protocol: as §1
For the determination of the number of leukocytes we used a haemocytometer (Improved Neubauer Chamber; Bright-line, Hausser Scientific) and a Polyvar 2 microscope (Reichert-Jung).

Myeloperoxidase (MPO) = Myeloperoxidase (MPO) activity in iris-ciliary body, rabbit paracentesis model; settings: for MPO activity in iris-ciliary body, Mean / MPO activity in iris-ciliary body: samples collected after the second paracentesis; for MPO activity in iris-ciliary body, Mean: group mean; for Δ/min (mean of the slope of the line recorded every 15 sec for 5 min) / MPO activity in iris-ciliary body: individual eyes
Protocol: 3.9 g of NaH2PO4 2H2O were dissolved in a volumetric flask to 500 ml with water. The pH was adjusted to pH=6 with 3N NaOH.
0.5 g of hexa-decyl-trimethyl-ammonium bromide was dissolved in 100 ml phosphate buffer.
The solution was prepared freshly. Ten microliters of H2O2 (30 wt. %) were diluted to 1 ml with water (solution A). 7.5 mg o-dianisidine 2HCl was dissolved in 45 ml of phosphate buffer and 75 μl of solution A were added.
as §1
The activity of MPO was measured as previously described by Williams et al.[5] The iris-ciliary bodies were carefully dried, weighed and immersed in 1 ml of hexa-decyl-trimethyl-ammonium bromide solution. Then, the samples were sonicated for 10 sec on ice by a ultrasound homogenizer (HD 2070, Bandelin electronic), freeze-thawed three times, sonicated for 10 sec and centrifuged at 14,000 g for 10 min to remove cellular debris. An aliquot of the supernatant (40-200 μl) was diluted to 3 ml with the o-dianisidine 2HCl/H2O2 solution. The change in absorbance at 460 nm was continuously monitored for 5 min by a spectrophotometer (UV/Vis Spectrometer Lambda EZ 201; Perkin Elmer). The slope of the line (Δ/min) was determined for each sample and used to calculate the number of units of MPO in the tissue as follows:
Values were expressed as units of MPO/g of tissue.

[3] = 0.5% topical, +115 min, N=8 eyes

Which results are given for `CC(C(=O)O)c1ccc(-c2ccccc2)c(F)c1` (stereo not drawn) [flurbiprofen]?
Pupillary diameter T1: −180 min ([1]; 0.03% topical, listed as F): 5.0 mm and 7.0 mm and 6.0 mm and 5.5 mm; Pupillary diameter T2: −5 min ([1]; 0.03% topical, listed as F): 6.0 mm and 6.5 mm and 7.0 mm and 5.5 mm; Pupillary diameter T3: +115 min ([1]; 0.03% topical, listed as F): 4.0 mm and 3.5 mm and 5.5 mm and 5.0 mm and 4.5 mm and 6.0 mm; Pupillary diameter Mean Δ(T3 − T1) ([1]; 0.03% topical): −0.9 mm; Clinical Score −5 min ([2]; 0.03% topical): 0; Clinical Score +115 min ([2]; 0.03% topical): 2; Percentage of eyes with clinical score 2 ([2]; 0.03% topical, +115 min, N=8 eyes): 100%; Percentage of eyes with clinical score 0 ([2]; 0.03% topical, −5 min, N=8 eyes): 100%; Percentage of eyes with clinical score 0 ([2]; 0.03% topical, −180 min (basal), N=8 eyes): 100%; Clinical Score −180 min ([2]; 0.03% topical, −180 min (basal)): 0; Levels of PGE2 in aqueous humor, Mean (Prostaglandin E2 (PGE2); 0.03% topical): 1.189 ng/mL; Protein levels in aqueous humor (raw data) (protein in aqueous humor; 0.03% topical, listed as F): 20.78 mg/mL and 28.80 mg/mL and 23.41 mg/mL and 20.21 mg/mL and 17.53 mg/mL and 15.12 mg/mL and 20.52 mg/mL; Protein levels in aqueous humor, Mean (protein in aqueous humor; 0.03% topical): 20.910 mg/mL; PMN numbers in aqueous humor, Mean (Leukocytes (PMN); 0.03% topical): 30.000 number/μl; MPO activity in iris-ciliary body, Mean (Myeloperoxidase (MPO); 0.03% topical): 0.906 MPO Unit/g; Δ/min (mean of the slope of the line recorded every 15 sec for 5 min) (Myeloperoxidase (MPO); 0.03% treatment, 100 μl supernatant aliquot diluted to 3 ml, listed as F): 0.049 and 0.082 and 0.013 and 0.031 and 0.038 and 0.027 and 0.033 and 0.061; MPO activity in iris-ciliary body (Myeloperoxidase (MPO); 0.03% treatment, listed as F): 1.10 Unit/g and 1.70 Unit/g and 0.34 Unit/g and 0.75 Unit/g and 0.74 Unit/g and 0.63 Unit/g and 0.73 Unit/g and 1.27 Unit/g

For `CCOC(=O)O[C@]1(C(=O)OCCl)CC[C@H]2[C@@H]3CCC4=CC(=O)C=C[C@]4(C)[C@H]3[C@@H](O)C[C@@]21C` [loteprednol etabonate], which “Pupillary diameter T1: −180 min” value ([1]; 0.5% topical, listed as LE) is on record?
Its value is 6.0 mm and 6.5 mm.

And the “Pupillary diameter T2: −5 min” value ([1]; 0.5% topical, listed as LE)?
Its value is 6.0 mm and 6.5 mm.

And the “Pupillary diameter T3: +115 min” value ([1]; 0.5% topical, listed as LE)?
Its value is 4.5 mm and 5.0 mm and 5.5 mm and 6.0 mm.

What about the “Pupillary diameter Mean Δ(T3 − T1)” value ([1]; 0.5% topical) of the same compound?
The value was −0.9 mm.

What about the “Clinical Score −5 min” value ([2]; 0.5% topical) of the same compound?
Its value is 0.

What about the “Clinical Score +115 min” value ([2]; 0.5% topical, listed as LE) of the same compound?
The value was 2 and 1.

And the “Percentage of eyes with clinical score 1” value [2, 3]?
Its value is 75%.

What about the “Percentage of eyes with clinical score 2” value [2, 3] of the same compound?
The value was 25%.

What about the “Percentage of eyes with clinical score 0” value ([2]; 0.5% topical, −5 min, N=8 eyes) of the same compound?
The value was 100%.

And the “Percentage of eyes with clinical score 0” value ([2]; 0.5% topical, −180 min (basal), N=8 eyes)?
Its value is 100%.

And the “Clinical Score −180 min” value ([2]; 0.5% topical, −180 min (basal))?
The value was 0.

And the “Levels of PGE2 in aqueous humor, Mean” value (Prostaglandin E2 (PGE2); 0.5% topical)?
The value was 0.672 ng/mL.

And the “Protein levels in aqueous humor (raw data)” value (protein in aqueous humor; 0.5% topical, listed as LE)?
Its value is 36.14 mg/mL and 39.10 mg/mL and 34.69 mg/mL and 26.10 mg/mL and 26.30 mg/mL and 28.16 mg/mL and 40.90 mg/mL and 39.85 mg/mL.

What about the “Protein levels in aqueous humor, Mean” value (protein in aqueous humor; 0.5% topical) of the same compound?
The value was 33.905 mg/mL.

And the “PMN numbers in aqueous humor (raw data)” value (Leukocytes (PMN); 0.5% topical, samples collected at the second paracentesis, single eyes, listed as LE)?
The value was 40 number/μl and 20 number/μl and 30 number/μl.

And the “PMN numbers in aqueous humor, Mean” value (Leukocytes (PMN); 0.5% topical)?
The value was 28.333 number/μl.

What about the “MPO activity in iris-ciliary body, Mean” value (Myeloperoxidase (MPO); 0.5% topical) of the same compound?
Its value is 0.661 MPO Unit/g.

What about the “Δ/min (mean of the slope of the line recorded every 15 sec for 5 min)” value (Myeloperoxidase (MPO); 0.5% treatment, 200 μl supernatant aliquot diluted to 3 ml, listed as LE) of the same compound?
The value was 0.026 and 0.053 and 0.067 and 0.055 and 0.076 and 0.096.

And the “MPO activity in iris-ciliary body” value (Myeloperoxidase (MPO); 0.5% treatment, listed as LE)?
The value was 0.30 Unit/g and 0.51 Unit/g and 0.81 Unit/g and 0.60 Unit/g and 0.73 Unit/g and 1.01 Unit/g.
